Measured values as given in paper PMC12591191, “SIRT6 Lysine‐Demyristoylates ATF2 to Ameliorate Vascular Injury via PRKCD/VE‐Cadherin Pathway Regulating Vascular Endothelial Barrier” (Advanced Science, 2025).

Columns and labels:
293T cells = test: Global myristoylation level, western blot; assay type: cell-based
Description: (§1) Protein samples were separated by SDS/PAGE and transferred to the PVDF membrane. The membrane was blocked with 5% BSA in TBST (25 mM Tris, pH 7.4, 150 mM NaCl, 0.1% Tween‐20), incubated with primary antibodies and secondary antibodies in TBST, and then treated with ECL Plus western blotting detection reagents (Bio‐rad). The chemiluminescence signal was analyzed by ChemiDoc imaging system (Bio‐rad).
(§2) HMEC‐1, obtained from Shanghai Zhong Qiao Xin Zhou Biotechnology, was cultured in MCDB131 medium containing 10% foetal bovine serum (FBS) and 1% antibiotics (penicillin and streptomycin) in 5% CO2 incubator at 37 °C. HUVEC, obtained from Shanghai Zhong Qiao Xin Zhou Biotechnology, were cultured in ECM medium containing 5% FBS, 1% antibiotics (penicillin and streptomycin) and 1% endothelial cell growth supplement (ECGS) in 5% CO2 incubator at 37 °C. HEK 293T were obtained from ATCC, and cultured in Dulbecco's modified Eagle's medium (DM EM) containing 10% FBS and 1% antibiotics (penicillin and streptomycin) in 5% CO2 incubator at 37 °C. The SIRT6 KO 293T cells were constructed by Hanbio Biotechnology, the SIRT6 gRNA was 5′‐[…]‐3′. SIRT6 overexpression and knockdown recombinant lentivirus were constructed by Hanbio Biotechnology, the vector pGLV3‐harboring SIRT6 and SIRT6 shRNA (5′‐[…]‐3′) were used for lentivirus packaging. […]

ATF2 in 293T = test: ATF2 protein level, western blot; assay type: cell-based; settings: 0–20 µg mL^−1, 12 h, n = 3
Description: as §1, §2

[1] = test system: FLAG-tagged ATF2 in 293T cells; test: ATF2 myristoylation, IP and Click-iT; assay type: cell-based; settings: 10 µg mL^−1, 12 h, n = 3
Description: (§3) HMEC‐1, obtained from Shanghai Zhong Qiao Xin Zhou Biotechnology, was cultured in MCDB131 medium containing 10% foetal bovine serum (FBS) and 1% antibiotics (penicillin and streptomycin) in 5% CO2 incubator at 37 °C. HUVEC, obtained from Shanghai Zhong Qiao Xin Zhou Biotechnology, were cultured in ECM medium containing 5% FBS, 1% antibiotics (penicillin and streptomycin) and 1% endothelial cell growth supplement (ECGS) in 5% CO2 incubator at 37 °C. HEK 293T were obtained from ATCC, and cultured in Dulbecco's modified Eagle's medium (DM EM) containing 10% FBS and 1% antibiotics (penicillin and streptomycin) in 5% CO2 incubator at 37 °C. The SIRT6 KO 293T cells were constructed by Hanbio Biotechnology, the SIRT6 gRNA was 5′‐[…]‐3′. SIRT6 overexpression and knockdown recombinant lentivirus were constructed by Hanbio Biotechnology, the vector pGLV3‐harboring SIRT6 and SIRT6 shRNA (5′‐[…]‐3′) were used for lentivirus packaging. The plasmid ATF2WT, ATF2K296R, GFP‐ATF2WT and GFP‐ATF2K296R were synthesized by Hanbio Biotechnology, and the plasmid pUC57‐SIRT6 and all primers were synthesized by Tsingke Biotechnology.
Click chemistry was used for the detection of K296 myristoylation of exogenous ATF2. The click chemistry‐based labeling and detection technology was conducted according to the manufacturer's instructions (Click‐iT Protein Reaction Buffer Kit Invitrogen C10276).

FLAG‐ATF2 in 293T cells = test: Nuclear localization of FLAG-ATF2, 293T; assay type: cell-based; settings: 10 µg mL^−1, 12 h, n = 3
Description: as §1, §2

[2] = test system: ATF2 in SIRT6 KD HMEC cells; test: Nuclear localization of ATF2, HMEC; assay type: cell-based; settings: 10 µg mL^−1, 12 h, n = 3; not the K296R mutant
Description: as §1, §2

[3] = test system: endogenous ATF2 in HUVECs; test: Nuclear localization of endogenous ATF2, HUVEC; assay type: cell-based; settings: 10 µg mL^−1, 12 h, n = 3
Description: as §1, §2

[4] = test system: VE‐Cadherin and PRKCD in HMEC-1; test: VE-Cadherin and PRKCD expression, western blot, HMEC-1; assay type: cell-based; settings: 10 µg mL^−1, 12 h, n = 3
Description: as §1, §2

HMEC-1 [5] = test: Transendothelial permeability (transwell, FITC-dextran); assay type: cell-based; settings: 10 µg mL^−1, 12 h; FITC‐dextran 6µg mL^−1, 2 h or 6h, n = 3
Description: as §2
HMEC‐1 transfected with relative plasmids were pretreated with ALK14(10 µg mL^−1) for 12 h and were grown on 0.4 µm‐pore transwell filters (Millipore, Bedford, MA) until confluent. […] Fluorescence of media in the lower chamber was detected at 485/530 nm by afluorescence microplate reader (FL × 800, BIO‐TEK Instruments).

HMEC-1 [6] = test: Intercellular gap formation, VE-Cadherin immunofluorescence; assay type: cell-based; settings: 10 µg mL^−1, 12 h, n = 8–10; prevented by K296R
Description: as §3

HMEC-1 [7] = test: Endothelial-stromal differentiation (CD31 and αSMA western blot); assay type: cell-based; settings: 10 ug/ml, 12h, n=3
Description: as §1, §2

[8] = test system: ATF2 localization and PRKCD/VE‐cadherin axis in HUVECs; test: ALK14 versus myristic acid, ATF2 localization and PRKCD/VE-cadherin axis; assay type: cell-based; settings: each 10 μg/ml, 12 hours
Description: as §1, §2

SIRT6 = SIRT6 activator, ref [57]; cited from earlier work
Description: Table 1 The activators of SIRT6 were represented with structure, EC50, category, company, indications, and reference. | column: EC50

SMILES | global myristoylation level, dose dependence (293T cells; 0–10 µg mL^−1, 12 hours) | global myristoylation level, ALK14-treated versus untreated (293T cells; SIRT6 WT and KO cells, 10 μg/ml) | ATF2 protein level (ATF2 in 293T) | ATF2 myristoylation level [1] | nuclear FLAG‐ATF2 accumulation (FLAG‐ATF2 in 293T cells) | nuclear accumulation of wild‐type ATF2 [2] | ATF2 translocation [3] | PRKCD expression [4] | VE‐cadherin expression [4] | endothelial permeability, ATF2 K296R cells (HMEC-1 [5]) | endothelial permeability, ATF2 WT cells (HMEC-1 [5]) | intercellular gap formation (5 µm/10 µm), ATF2 WT (HMEC-1 [6]) | effect on endothelial‐stromal differentiation (HMEC-1 [7]) | impact on ATF2 localization and PRKCD/VE‐cadherin axis, myristic acid versus ALK14 [8] | EC50 (SIRT6)
C#CCCCCCCCCCCCC(=O)O [ALK14, Alkynyl myristic acid] | dose‐dependent increases | significantly elevated global myristoylation levels | remained stable | significant myristoylation enhancement | significantly reduced nuclear FLAG‐ATF2 accumulation | reduced nuclear accumulation of wild‐type ATF2 | translocation of endogenous ATF2 from nucleus to cytoplasm | PRKCD reduction | significantly reduced VE‐cadherin expression | absent in K296R mutants | ALK14‐induced permeability in ATF2 WT cells | ALK14‐induced gap formation | Neither ALK14 nor ATF2 modification influenced endothelial‐stromal differentiation | equivalent impacts | –
